Entries after “also recorded” stand apart in the source; their conditions may differ.
Assays:
GAS5 [1] = assay: GAS5 levels in DM adipocytes by SYBR Green qPCR; type: cell-based; details: 20 nM, about 24 hours
Method: Strategy for compound design: GAS5 transcript may be targeted to faster turnover by nonsense mediated RNA decay. GAS5 transcript has a premature termination codon which renders greater susceptibility for nonsense mediated RNA decay. […] GAS5 and UPF1 levels were measured in NDM and DM adipocytes.
DM adipocytes were treated with G5-1397 (20 nM) for about 24 hours. GAS5 levels were measured using SYBR Green qPCR.

DM adipocytes = assay: cell viability assay after treatment with compound; type: cell-based; details: DM adipocytes treated with compound, cell viability assay (FIG. 3B)
GAS5 transcript = assay: RNA-EMSA (REMSA) with biotin-labeled in vitro transcribed GAS5; type: binding; details: 0.1 nM biotin-labeled GAS5, 10 nM compound, 10U yeast tRNA, 20 min at room temperature
Method: RNA-EMSA was performed as previously described (see e.g. Apostolatos, H., Apostolatos, A., Vickers, T., Watson, J. E., Song, S., Vale, F., Cooper, D. R., Sanchez-Ramos, J., and Patel, N. A. (2010) Vitamin A metabolite, all-trans-retinoic acid, mediates alternative splicing of protein kinase C deltaVIII (PKCdeltaVIII) isoform via splicing factor SC35. J Biol Chem 285, 25987-25995 and Patel, R. S., Carter, G., Cooper, D. R., Apostolatos, H., and Patel, N. A. (2014) Transformer 2beta homolog (Drosophila) (TRA2B) regulates protein kinase C deltal (PKCdeltal) splice variant expression during 3T3L1 preadipocyte cell cycle. J Biol Chem 289, 31662-31672.
Briefly, GAS5 was cloned in TOPO vector which has the T7 promoter. In vitro transcription assay was performed with biotin-label using RiboScribe kit using T7 RNA polymerase at 37° C. for 2 h in the presence of nucleotides, RNase inhibitor, and 5× transcription buffer. 0.1 nM of transcribed, biotin-labeled GAS5 was incubated with 10 nM G5-1397 in presence of 10U yeast tRNA and 10 units of RNase inhibitor in a final volume of 10 μl of RNA shift buffer for 20 min at room temperature and detected using Biotin Chromogenic Detection kit (ThermoFisher). […] Using the same assay, compounds according to Formulas 4-19 were also observed to bind GAS5 long non-coding RNA.

GAS5 [2] = assay: screen of γ-AApeptide one-bead-one-compound combinatorial library with fluorescein tagged GAS5 oligonucleotide probe and validation; type: binding; details: positive beads from screen of 160,000 molecules, tRNA as control
From the text: The interaction between UPF1 and GAS5 was disrupted using a γ-AApeptide based one-bead-one-compound (OBOC) combinatorial library (Wu H, Li Y, Bai G, Niu Y, Qiao Q, Tipton J D, Cao C, Cai J. gamma-AApeptide-based small-molecule ligands that inhibit Abeta aggregation. Chemical communications. 2014; 50(40):5206-8. doi: 10.1039/c3cc46685j. PubMed PMID: 24158240). The γ-AApeptide is a peptidomimetic with side chains for chemical diversity and are resistant to proteolytic cleavage. To screen the compound library, a probe that contained a fluorescein tagged oligonucleotide was synthesized. The probe spanned 30 nucleotides on either side of the UAA sequences on GAS5 (FIG. 2) The fluorescein was attached to the 5′end (beginning of oligonucleotide probe sequence). The nucleotide sequence within the GAS5 IncRNA that the oligonucleotide probe binds to can be about 100% identical to […] […]
The length of oligonucleotide was required to maintain stem loop structure to specifically bind to GAS5. […] The compound having a structure according to Formula 3 was determined to have a chemical formula of C68H92N10O9S, a mass of about 1224.6769, and a molecular weight of 1225.6050. The compound having a structure according to Formula 14 was determined to have a chemical formula of C63H85N9O13S, a mass of about 1207.5988, and a molecular weight of 1208.4830.

| SMILES | GAS5 levels (GAS5 [1]) | cell toxicity (DM adipocytes) | binding to GAS5 transcript (GAS5 transcript) | ability to bind GAS5 (GAS5 [2]) |
| --- | --- | --- | --- | --- |
| CC(C)C[C@H]1CN(C(=O)CC2CC2)CC(=O)N[C@@H](CCCCN)CN(C(=O)CCc2ccccc2)CC(=O)N[C@@H](Cc2ccccc2)CN(CC(N)=O)C(=O)CCSCc2ccc(cc2)C(=O)N[C@@H](Cc2ccccc2)CN(C(=O)CC2CC2)CC(=O)N1 [Formula G5-1397] | substantially increases GAS5 levels | without causing cell toxicity | bound to GAS5 transcript; also recorded: GAS5 transcript binding | able to bind GAS5 |
| C[C@H]1CN(C(=O)CC2CC2)CC(=O)N[C@@H](CCC(=O)O)CN(C(=O)CCC2CCCCC2)CC(=O)N[C@@H](Cc2ccccc2)CN(CC(N)=O)C(=O)CCSCc2ccc(cc2)C(=O)N[C@@H](Cc2ccccc2)CN(C(=O)CCC(=O)O)CC(=O)N1 [Formula 14] |  |  |  | able to bind GAS5 |

From patent publication US11278521B2, “GAS5 binding compounds, formulations, and uses thereof” (UNIVERSITY OF SOUTH FLORIDA, priority 2015, dated 2022)
